Test results published in ChEMBL document CHEMBL2073850, “Human organic anion transporters and human organic cation transporters mediate renal transport of prostaglandins” (J Pharmacol Exp Ther, 2002).

What was measured:
Format in all cases: functional, cell-based
Set-up in all cases: scale not given: the % may be the effect or the level left
[1] = target: T1, Organic anion transporter 3 (Homo sapiens, UniProt Q8TCC7); assay: TP_TRANSPORTER: inhibition of ES uptake (ES: 0.05 uM, PGE2: 30 uM) in OAT3-expressing S2 cells; settings: s2, 30 µM
T1 sequence (Q8TCC7 whole entry): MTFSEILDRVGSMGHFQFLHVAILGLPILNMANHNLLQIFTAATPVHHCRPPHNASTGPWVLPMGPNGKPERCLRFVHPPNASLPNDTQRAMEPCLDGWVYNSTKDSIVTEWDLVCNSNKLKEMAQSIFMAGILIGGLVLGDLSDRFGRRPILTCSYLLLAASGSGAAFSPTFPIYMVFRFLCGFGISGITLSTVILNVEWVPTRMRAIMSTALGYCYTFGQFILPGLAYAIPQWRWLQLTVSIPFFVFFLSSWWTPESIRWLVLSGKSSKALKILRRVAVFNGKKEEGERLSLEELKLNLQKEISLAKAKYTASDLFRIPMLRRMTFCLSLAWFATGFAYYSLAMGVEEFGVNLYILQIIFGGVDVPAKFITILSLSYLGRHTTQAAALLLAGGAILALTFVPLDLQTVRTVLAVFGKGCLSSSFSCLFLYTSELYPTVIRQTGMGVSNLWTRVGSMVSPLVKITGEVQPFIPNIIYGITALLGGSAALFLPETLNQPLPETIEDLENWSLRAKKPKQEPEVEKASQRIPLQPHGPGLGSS

[2] = target: T2, OCT1 (Solute carrier family 22 member 1) (Homo sapiens, UniProt O15245); assay: TP_TRANSPORTER: inhibition of TEA uptake (TEA: 5 uM, PGE2: 1000 uM) in OCT1-expressing S2 cells; settings: probe TEA, read-out: Activity
T2 sequence (O15245 whole entry): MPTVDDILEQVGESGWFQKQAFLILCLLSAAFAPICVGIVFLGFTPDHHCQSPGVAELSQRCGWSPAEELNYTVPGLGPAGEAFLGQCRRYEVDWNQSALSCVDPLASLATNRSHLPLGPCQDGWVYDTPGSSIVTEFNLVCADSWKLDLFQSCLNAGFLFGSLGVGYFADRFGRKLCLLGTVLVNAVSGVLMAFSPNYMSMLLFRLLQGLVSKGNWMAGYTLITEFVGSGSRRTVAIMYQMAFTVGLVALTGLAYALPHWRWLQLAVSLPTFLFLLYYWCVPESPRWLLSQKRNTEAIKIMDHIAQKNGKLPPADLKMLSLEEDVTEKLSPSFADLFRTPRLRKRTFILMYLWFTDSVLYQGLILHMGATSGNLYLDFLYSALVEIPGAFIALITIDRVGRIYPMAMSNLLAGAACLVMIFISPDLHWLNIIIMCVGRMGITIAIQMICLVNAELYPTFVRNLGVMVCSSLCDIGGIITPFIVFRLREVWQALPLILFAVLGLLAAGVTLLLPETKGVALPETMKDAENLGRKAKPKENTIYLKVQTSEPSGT

[3] = target: T3, OCT2 (Solute carrier family 22 member 2) (Homo sapiens, UniProt O15244); assay: TP_TRANSPORTER: inhibition of TEA uptake (TEA: 5 uM, PGE2: 1000 uM) in OCT2-expressing S2 cells; settings: mouse, probe TEA, read-out: Activity
T3 sequence (O15244 whole entry): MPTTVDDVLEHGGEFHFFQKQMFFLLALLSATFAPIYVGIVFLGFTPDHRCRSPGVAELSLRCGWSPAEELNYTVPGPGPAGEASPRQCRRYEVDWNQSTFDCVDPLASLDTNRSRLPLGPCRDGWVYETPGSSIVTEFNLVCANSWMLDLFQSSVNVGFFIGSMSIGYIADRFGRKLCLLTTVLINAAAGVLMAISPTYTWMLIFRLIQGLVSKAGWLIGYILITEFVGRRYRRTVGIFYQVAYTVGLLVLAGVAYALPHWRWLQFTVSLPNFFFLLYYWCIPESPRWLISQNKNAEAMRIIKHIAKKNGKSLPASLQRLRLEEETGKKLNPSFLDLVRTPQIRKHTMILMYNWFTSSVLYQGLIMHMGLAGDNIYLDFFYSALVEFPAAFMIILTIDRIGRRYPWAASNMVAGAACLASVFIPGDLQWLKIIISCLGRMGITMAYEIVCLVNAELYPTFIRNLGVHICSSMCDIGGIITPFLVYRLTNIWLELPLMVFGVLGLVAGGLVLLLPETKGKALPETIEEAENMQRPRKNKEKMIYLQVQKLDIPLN

[4] = target: T4, OAT2 (Solute carrier family 22 member 7) (Homo sapiens, UniProt Q9Y694); assay: TP_TRANSPORTER: inhibition of PGF2alpha uptake (PGF2alpha: 0.05 uM, PGE2: 30 uM) in OAT2-expressing S2 cells; settings: mouse, probe PGF2alpha, read-out: Activity
T4 sequence (Q9Y694 whole entry): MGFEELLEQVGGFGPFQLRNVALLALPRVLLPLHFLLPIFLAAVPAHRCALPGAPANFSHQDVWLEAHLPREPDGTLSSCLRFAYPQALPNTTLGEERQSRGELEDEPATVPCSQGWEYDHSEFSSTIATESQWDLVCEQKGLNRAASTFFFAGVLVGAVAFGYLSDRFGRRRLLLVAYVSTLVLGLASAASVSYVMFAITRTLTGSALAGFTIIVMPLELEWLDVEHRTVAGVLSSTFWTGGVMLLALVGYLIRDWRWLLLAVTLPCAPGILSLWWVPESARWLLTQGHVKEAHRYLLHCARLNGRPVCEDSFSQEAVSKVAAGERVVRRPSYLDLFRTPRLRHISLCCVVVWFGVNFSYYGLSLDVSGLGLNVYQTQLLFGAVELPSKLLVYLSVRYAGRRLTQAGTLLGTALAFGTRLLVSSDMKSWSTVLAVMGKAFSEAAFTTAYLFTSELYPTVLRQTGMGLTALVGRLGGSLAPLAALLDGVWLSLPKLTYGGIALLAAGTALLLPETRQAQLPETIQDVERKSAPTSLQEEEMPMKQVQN

[5] = target: T5, OAT4 (Solute carrier family 22 member 11) (Homo sapiens, UniProt Q9NSA0); assay: TP_TRANSPORTER: inhibition of ES uptake (ES: 0.05 uM, PGE2: 30 uM) in OAT4-expressing S2 cells; settings: probe ES, read-out: Activity
T5 sequence (Q9NSA0 whole entry): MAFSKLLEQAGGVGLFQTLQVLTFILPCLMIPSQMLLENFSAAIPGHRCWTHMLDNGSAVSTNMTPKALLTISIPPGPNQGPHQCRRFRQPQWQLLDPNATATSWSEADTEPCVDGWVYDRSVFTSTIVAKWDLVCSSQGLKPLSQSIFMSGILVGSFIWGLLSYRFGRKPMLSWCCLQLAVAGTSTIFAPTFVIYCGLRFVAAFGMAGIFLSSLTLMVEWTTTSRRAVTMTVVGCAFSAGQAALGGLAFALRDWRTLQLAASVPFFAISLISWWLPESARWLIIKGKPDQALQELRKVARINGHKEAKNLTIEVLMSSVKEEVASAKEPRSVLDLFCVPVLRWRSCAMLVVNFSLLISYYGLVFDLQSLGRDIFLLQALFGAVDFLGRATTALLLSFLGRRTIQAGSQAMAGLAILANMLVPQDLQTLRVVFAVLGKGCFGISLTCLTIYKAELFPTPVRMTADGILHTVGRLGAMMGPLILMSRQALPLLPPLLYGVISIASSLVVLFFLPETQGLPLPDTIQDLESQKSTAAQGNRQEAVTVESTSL

[6] = target: T5, OAT4 (Solute carrier family 22 member 11); assay: TP_TRANSPORTER: inhibition of ES uptake (ES: 0.05 uM, PGF2alpha: 30 uM) in OAT4-expressing S2 cells; settings: mouse, probe ES, read-out: Activity
[7] = target: T6, OAT3 (Organic anion transporter 3) (Homo sapiens, UniProt Q8TCC7); assay: TP_TRANSPORTER: inhibition of ES uptake (ES: 0.05 uM, PGF2alpha: 30 uM) in OAT3-expressing S2 cells; settings: probe ES, read-out: Activity
T6 sequence (Q8TCC7 whole entry): T1 sequence (Q8TCC7 whole entry)

[8] = target: T7, Solute carrier family 22 member 1 (Homo sapiens, UniProt O15245); assay: TP_TRANSPORTER: inhibition of TEA uptake (TEA: 5 uM, PGF2alpha: 1000 uM) in OCT1-expressing S2 cells; settings: mouse, s2, 1000 µM
T7 sequence (O15245 whole entry): T2 sequence (O15245 whole entry)

[9] = target: T8, OAT1 (Solute carrier family 22 member 6) (Homo sapiens, UniProt Q4U2R8); assay: TP_TRANSPORTER: inhibition of PAH uptake (PAH: 5 uM, PGF2alpha: 1000 uM) in OAT1-expressing S2 cells; settings: mouse, probe PAH, read-out: Activity
T8 sequence (Q4U2R8 whole entry): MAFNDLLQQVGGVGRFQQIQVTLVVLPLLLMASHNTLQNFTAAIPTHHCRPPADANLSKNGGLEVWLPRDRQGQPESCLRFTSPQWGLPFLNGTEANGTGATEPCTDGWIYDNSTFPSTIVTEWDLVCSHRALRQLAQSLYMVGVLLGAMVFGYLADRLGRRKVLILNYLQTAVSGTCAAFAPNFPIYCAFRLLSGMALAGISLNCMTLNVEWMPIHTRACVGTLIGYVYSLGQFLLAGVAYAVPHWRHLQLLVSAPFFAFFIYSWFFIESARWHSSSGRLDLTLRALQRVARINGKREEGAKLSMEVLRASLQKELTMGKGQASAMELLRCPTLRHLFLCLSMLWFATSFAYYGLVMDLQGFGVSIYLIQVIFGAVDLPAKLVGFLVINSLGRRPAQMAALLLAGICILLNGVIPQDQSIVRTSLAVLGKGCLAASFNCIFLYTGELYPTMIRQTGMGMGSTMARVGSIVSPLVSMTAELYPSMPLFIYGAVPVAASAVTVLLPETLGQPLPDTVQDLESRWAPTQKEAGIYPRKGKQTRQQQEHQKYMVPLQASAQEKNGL

[10] = target: T3, OCT2 (Solute carrier family 22 member 2); assay: TP_TRANSPORTER: inhibition of TEA uptake (TEA: 5 uM, PGF2alpha: 1000 uM) in OCT2-expressing S2 cells; settings: mouse, probe TEA, read-out: Activity

Activity [1] [%]	activity at 1000 µM [2] [%]	activity at 1000 µM [3] [%]	activity at 30 µM [4] [%]	activity at 30 µM [5] [%]	activity at 30 µM [6] [%]	activity at 30 µM [7] [%]	Activity [8] [%]	activity at 1000 µM [9] [%]	activity at 1000 µM [10] [%]	Structure (SMILES)
21.8	31.4	75.6	21.2	57	–	–	–	–	–	CCCCC[C@H](O)/C=C/[C@H]1[C@H](O)CC(=O)[C@@H]1C/C=C\CCCC(=O)O [DINOPROSTONE]
–	–	–	–	–	40.8	26.8	68.9	17.7	70.7	CCCCC[C@H](O)/C=C/[C@@H]1[C@@H](C/C=C\CCCC(=O)O)[C@@H](O)C[C@H]1O [DINOPROST]
